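Protocol summary: plate cells (96-well), add compound at 5 concentrations, incubate 48 h, interpolate endpoints linearly. Abbreviation: GI50, concentration required for 50% inhibition of growth. TGI marks complete inhibition of growth.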
How the values were obtained:
Test in all cases: inhibition of tumour cell growth, NCI panel, 48 h
SNB-75 CNS = system: SNB-75 CNS
TK-10 renal = system: TK-10 renal
KM20L2 colon = system: KM20L2 colon
M14 melanoma = system: M14 melanoma
RPMI-8226 leukemia = system: RPMI-8226 leukemia
OVCAR-5 ovarian = system: OVCAR-5 ovarian
OVCAR-8 ovarian = system: OVCAR-8 ovarian
DMS 273 small cell lung = system: DMS 273 small cell lung
UACC-62 melanoma = system: UACC-62 melanoma
T-47D breast = system: T-47D breast

## CN(C)c1nc(=Nc2ccc(N=c3nc(N(C)C)ss3)cc2)ss1
SNB-75 CNS
  TGI: > 100 µM
TK-10 renal
  TGI: > 31.6 µM
KM20L2 colon
  TGI: > 100 µM
M14 melanoma
  TGI: 25.6 µM
RPMI-8226 leukemia
  TGI: 40.7 µM
OVCAR-5 ovarian
  TGI: > 100 µM
OVCAR-8 ovarian
  TGI: 34.2 µM
DMS 273 small cell lung
  TGI: > 64 µM
UACC-62 melanoma
  TGI: > 21.3 µM

## [Cl-].[La+3].[O-]/N=C(\c1ccccc1)c1ccccn1.[O-]/N=C(\c1ccccc1)c1ccccn1.[O-]/N=C(\c1ccccc1)c1ccccn1
SNB-75 CNS
  GI50: 27.8 µM
  TGI: 82 µM
TK-10 renal
  GI50: > 74.4 µM
  TGI: > 100 µM
KM20L2 colon
  GI50: 46.2 µM
  TGI: > 100 µM
M14 melanoma
  GI50: 20.2 µM
  TGI: 41.4 µM
RPMI-8226 leukemia
  GI50: 62.1 µM
  TGI: > 100 µM
OVCAR-8 ovarian
  GI50: 46 µM
  TGI: > 100 µM
DMS 273 small cell lung
  GI50: 31.3 µM
  TGI: > 100 µM
UACC-62 melanoma
  GI50: 33.3 µM
  TGI: > 100 µM

## CC1=CC(O)(c2ccc(-c3ccccc3Cl)cc2)OC1=O (centres undefined)
SNB-75 CNS
  TGI: > 100 µM
TK-10 renal
  TGI: > 100 µM
KM20L2 colon
  TGI: > 100 µM
M14 melanoma
  TGI: > 100 µM
RPMI-8226 leukemia
  TGI: > 100 µM
OVCAR-5 ovarian
  TGI: > 100 µM
OVCAR-8 ovarian
  TGI: > 100 µM
DMS 273 small cell lung
  TGI: > 100 µM
UACC-62 melanoma
  TGI: > 100 µM

## Nc1ncnc2c1nnn2C1OC(CO)C(O)C1O (centres undefined)
SNB-75 CNS
  TGI: 16.9 µM
TK-10 renal
  GI50: 0.151 µM
  TGI: 3.39 µM
KM20L2 colon
  TGI: > 74.3 µM
T-47D breast
  GI50: 0.265 µM
  TGI: 4.81 µM
M14 melanoma
  GI50: 0.261 µM
  TGI: 4.91 µM
RPMI-8226 leukemia
  TGI: 5.71 µM
OVCAR-5 ovarian
  TGI: 15.4 µM
OVCAR-8 ovarian
  TGI: 8.97 µM
DMS 273 small cell lung
  TGI: 13.6 µM
UACC-62 melanoma
  TGI: 4.72 µM

## CC(C)=Cc1cc(C(=O)Nc2ccc(Cl)c(Cl)c2)nc(N)n1
SNB-75 CNS
  TGI: > 100 µM
TK-10 renal
  TGI: > 100 µM
KM20L2 colon
  TGI: > 100 µM
M14 melanoma
  TGI: > 100 µM
RPMI-8226 leukemia
  TGI: > 100 µM
OVCAR-5 ovarian
  TGI: > 100 µM
OVCAR-8 ovarian
  TGI: > 100 µM
DMS 273 small cell lung
  TGI: > 100 µM
UACC-62 melanoma
  TGI: > 100 µM

## CC(C)OP(=O)(OC(C)C)C(=NCCN=C(NNc1ccc([N+](=O)[O-])cc1)P(=O)(OC(C)C)OC(C)C)NNc1ccc([N+](=O)[O-])cc1
SNB-75 CNS
  TGI: > 100 µM
TK-10 renal
  TGI: > 100 µM
KM20L2 colon
  TGI: > 100 µM
M14 melanoma
  TGI: > 100 µM
RPMI-8226 leukemia
  TGI: > 100 µM
OVCAR-5 ovarian
  TGI: > 100 µM
OVCAR-8 ovarian
  TGI: > 100 µM
DMS 273 small cell lung
  TGI: > 100 µM
UACC-62 melanoma
  TGI: 36.7 µM

## CC(=O)OC1COC(n2ccc3cc(Br)c([N+](=O)[O-])cc32)C(OC(C)=O)C1OC(C)=O (centres undefined)
SNB-75 CNS
  TGI: 75.2 µM
TK-10 renal
  TGI: 81.7 µM
KM20L2 colon
  TGI: > 100 µM
M14 melanoma
  TGI: > 100 µM
RPMI-8226 leukemia
  TGI: > 100 µM
OVCAR-8 ovarian
  TGI: 82.1 µM
DMS 273 small cell lung
  TGI: > 100 µM
UACC-62 melanoma
  TGI: 46.5 µM

## C#CC1(O)CCC2C3CCc4cc(Oc5nc(F)nc(-c6c7ccccc7c7sc8ccccc8n67)n5)ccc4C3CC[C@@]21C (some centres undefined)
SNB-75 CNS
  TGI: 89.3 µM
TK-10 renal
  TGI: > 100 µM
KM20L2 colon
  TGI: > 100 µM
M14 melanoma
  TGI: 98.3 µM
RPMI-8226 leukemia
  TGI: > 100 µM
OVCAR-5 ovarian
  TGI: > 100 µM
OVCAR-8 ovarian
  TGI: > 100 µM
DMS 273 small cell lung
  TGI: > 100 µM
UACC-62 melanoma
  TGI: > 100 µM

## CSc1nc(NC2OCC(OC(C)=O)C(OC(C)=O)C2OC(C)=O)c(N=CC=Nc2c(NC3OCC(OC(C)=O)C(OC(C)=O)C3OC(C)=O)nc(SC)[nH]c2=O)c(=O)[nH]1 (centres undefined)
SNB-75 CNS
  TGI: 57.4 µM
TK-10 renal
  TGI: > 100 µM
KM20L2 colon
  TGI: > 100 µM
T-47D breast
  TGI: > 100 µM
M14 melanoma
  TGI: > 100 µM
RPMI-8226 leukemia
  TGI: > 100 µM
OVCAR-5 ovarian
  TGI: > 100 µM
OVCAR-8 ovarian
  TGI: > 100 µM
DMS 273 small cell lung
  TGI: > 100 µM
UACC-62 melanoma
  TGI: > 100 µM

## CCc1cc(Cc2cc(CC)c(NC(=O)C(=O)Cc3ccccn3)c(CC)c2Cl)c(Cl)c(CC)c1NC(=O)C(=O)Cc1ccccn1
SNB-75 CNS
  TGI: > 100 µM
TK-10 renal
  TGI: > 100 µM
KM20L2 colon
  TGI: > 100 µM
M14 melanoma
  TGI: > 100 µM
RPMI-8226 leukemia
  TGI: > 100 µM
OVCAR-5 ovarian
  TGI: > 100 µM
OVCAR-8 ovarian
  TGI: > 100 µM
DMS 273 small cell lung
  TGI: > 100 µM
UACC-62 melanoma
  TGI: > 100 µM

## c1ccc(COc2cccc3ccc[n+](Cc4ccccc4)c23)cc1
SNB-75 CNS
  TGI: 19.4 µM
TK-10 renal
  TGI: 94.6 µM
KM20L2 colon
  TGI: 93.8 µM
M14 melanoma
  TGI: 60.2 µM
RPMI-8226 leukemia
  TGI: 14.2 µM
OVCAR-5 ovarian
  TGI: 9.98 µM
DMS 273 small cell lung
  TGI: 17.7 µM
UACC-62 melanoma
  TGI: 20.1 µM

## CCCCCCCCC/C=C1\CCC(CN2CCOCC2)C1=O (centres undefined)
SNB-75 CNS
  TGI: 16 µM
TK-10 renal
  TGI: 5.56 µM
KM20L2 colon
  TGI: 20.5 µM
M14 melanoma
  TGI: 9.41 µM
RPMI-8226 leukemia
  TGI: 1.08 µM
OVCAR-5 ovarian
  TGI: 31.6 µM
OVCAR-8 ovarian
  TGI: 3.13 µM
DMS 273 small cell lung
  TGI: 5.08 µM
UACC-62 melanoma
  TGI: 10.7 µM

## CC(C)(C)OC(=O)N[C@H]1CC2(C=C(Cl)C(=O)C(Cl)=C2)OC1=O
SNB-75 CNS
  TGI: 41.1 µM
TK-10 renal
  TGI: 33.8 µM
KM20L2 colon
  TGI: 39.4 µM
T-47D breast
  TGI: 40.5 µM
M14 melanoma
  TGI: 33.7 µM
RPMI-8226 leukemia
  TGI: 19.8 µM
OVCAR-5 ovarian
  TGI: 38.6 µM
OVCAR-8 ovarian
  TGI: 34.5 µM
DMS 273 small cell lung
  TGI: 32.9 µM
UACC-62 melanoma
  TGI: 30.6 µM

## OCc1ccc(-c2ccc(-c3ccc(CO)s3)o2)s1
SNB-75 CNS
  TGI: 80.3 µM
TK-10 renal
  TGI: 0.171 µM
KM20L2 colon
  TGI: 1.19 µM
T-47D breast
  TGI: 7.59 µM
M14 melanoma
  TGI: > 84.3 µM
RPMI-8226 leukemia
  TGI: 62.3 µM
OVCAR-5 ovarian
  TGI: 0.102 µM
OVCAR-8 ovarian
  TGI: 61.4 µM
DMS 273 small cell lung
  TGI: > 49.5 µM
UACC-62 melanoma
  TGI: 0.154 µM

## COC(OC)C(C)CC(=O)N(C)C (centres undefined)
SNB-75 CNS
  TGI: > 100 µM
TK-10 renal
  TGI: > 100 µM
KM20L2 colon
  TGI: > 100 µM
M14 melanoma
  TGI: > 100 µM
RPMI-8226 leukemia
  TGI: > 100 µM
OVCAR-5 ovarian
  TGI: > 100 µM
OVCAR-8 ovarian
  TGI: > 100 µM
DMS 273 small cell lung
  TGI: > 100 µM
UACC-62 melanoma
  TGI: > 100 µM

## CCOC(=O)C(=C=C=C(c1ccccc1)c1ccccc1)C(=O)OCC
SNB-75 CNS
  TGI: 21.9 µM
TK-10 renal
  TGI: 31.3 µM
KM20L2 colon
  TGI: 45.2 µM
M14 melanoma
  TGI: 41.5 µM
RPMI-8226 leukemia
  TGI: 44.9 µM
OVCAR-5 ovarian
  TGI: 35.5 µM
OVCAR-8 ovarian
  TGI: 50.3 µM
DMS 273 small cell lung
  TGI: 45.5 µM
UACC-62 melanoma
  TGI: 37.7 µM

## Cc1ccc(NC(=O)c2cc3cc(N=Nc4ccccc4C(=O)O)ccc3oc2=O)cc1
SNB-75 CNS
  TGI: > 100 µM
TK-10 renal
  TGI: > 100 µM
KM20L2 colon
  TGI: > 100 µM
M14 melanoma
  TGI: > 100 µM
RPMI-8226 leukemia
  TGI: > 100 µM
OVCAR-8 ovarian
  TGI: > 100 µM
DMS 273 small cell lung
  TGI: > 100 µM
UACC-62 melanoma
  TGI: 85 µM

— PubChem BioAssay (NCI)
